Assay results: paper PMC7747594, “Protease-activated receptor-2 ligands reveal orthosteric and allosteric mechanisms of receptor inhibition” (Communications Biology, 2020)
Where “and” joins values, the source holds several entries; their conditions need not be identical. Identical values can stand only once. Entries after “also recorded” stand apart in the source; their conditions may differ. Like-named read-outs stand apart in the source and are kept apart here.

Columns and labels:
hPAR2 [1] = biological target: T1, hPAR2 (Homo sapiens, UniProt P55085); assay: Ca^2+ flux assay, agonist mode, 1321N1-hPAR2 cells; assay type: cell-based; parameters: Ca^2+ mobilisation tested as agonist, Fig 1c source data / Ca2+ response (Fig 2c), individual replicate values: unit not given here; conditions: for Ca2+ response (Fig 2c), individual replicate values: hPAR2; for Ca^2+ mobilisation tested as agonist, Fig 1c source data: log[compound], individual data points; for agonist activity (tested as agonists): Ca^2+ assay and other signalling assays
T1 sequence (P55085 26-397): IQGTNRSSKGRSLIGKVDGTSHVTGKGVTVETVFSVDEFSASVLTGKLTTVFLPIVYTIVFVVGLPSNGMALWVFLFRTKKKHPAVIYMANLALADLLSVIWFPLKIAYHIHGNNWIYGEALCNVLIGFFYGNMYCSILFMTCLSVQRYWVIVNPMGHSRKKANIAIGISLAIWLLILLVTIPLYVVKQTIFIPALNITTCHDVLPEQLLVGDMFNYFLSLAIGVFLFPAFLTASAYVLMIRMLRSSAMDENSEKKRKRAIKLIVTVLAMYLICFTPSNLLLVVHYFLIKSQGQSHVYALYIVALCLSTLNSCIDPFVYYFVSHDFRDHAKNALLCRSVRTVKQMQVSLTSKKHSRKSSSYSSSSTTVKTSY
Method: Cells were loaded with Fluo-8 NW calcium dye (AAT Bioquest) for 30 min at 37 °C before compounds in Hank’s balanced salt solution (HBSS, ThermoFisher Scientific) with 20 mM HEPES (ThermoFisher Scientific), 0.1% bovine serum albumin (BSA, Sigma) and 0.5% DMSO were added and simultaneously evaluated for changes in intracellular [Ca^2+] using FLIPR TETRA (Molecular Devices) to detect agonism. For each concentration, the difference between the maximum peak Ca^2+ response and baseline response is reported. […] Antagonism experiments were also carried out on 1321N1-PAR2[WT], 1321N1-PAR2[F154A], and 1321N1-PAR2[G157C] as described. Experiments with trypsin in 1321N1-hPAR2 cells were performed in the presence of 1 µM Vorapaxar (Chemtronica) to remove any interference of PAR1 activity. […] Antagonism experiments for CHO-hPAR2 and HT-29 cells were performed in 96-well plates at 30,000 cells/well. Cells were loaded with Fluo-3 AM calcium dye (Sigma-Aldrich) for 60 min at 37 °C in HBSS with 1% FBS, 0.2% pluronic acid, 20 mM HEPES and 2.5 mM probenecid prior to the addition of antagonist. The antagonist was pre-incubated for 60 min at 37 °C followed by the addition of bovine trypsin (30 nM) at EC80. Intracellular [Ca^2+] flux was measured using FLIPR TETRA (Molecular Devices) and the difference between the maximum peak Ca^2+ response and baseline response is reported.
Binding data were analysed using the One site – Fit Ki model in GraphPad Prism 8 (GraphPad Software) to determine binding affinity. Pharmacology in vitro potency data was analysed with a 4-parameter logistic fit using the equation y = Bottom + (Top − Bottom)/[…] where y is the response, x is the 10-logarithm of the drug concentration, Bottom is no response and Top is full response in GraphPad Prism 8 or Genedata Screener (Genedata). pEC50 and pIC50 data are presented as mean ± standard error of the mean (s.e.m.) derived from the number of independent experiments stated. Schild slope analysis was calculated using Graphpad Prism 8 Gaddum/Schild EC50 global fitting (shared model parameters between all data sets) competitive model. […] Schild slope quantifies the shifts in agonist response in the presence of antagonist, a Schild slope of 1 indicates the antagonist is competitive and extra-sum-of-squares F-test (p < 0.05) was used to compare the calculated Schild slope against a hypothetical Schild slope of 1. […] The relative activity was calculated using (EmaxEC50’)/(Emax’EC50) with the Hill slope help constant at 1. EC50’ and Emax’ denote the EC50 and Emax in the absence of allosteric modulator, while EC50 and Emax denote those measured in the presence of allosteric modulator. When the Hill slope = 1, the relative activity plot approaches an asymptote corresponding to the estimate of the γ value.

hPAR2 [2] = biological target: T1, hPAR2; assay: Radiolabelled competition binding assay against [^3H]-GB110 on HEKexpi293F membranes; parameters: expressed in transfected cells
Method: The reaction was then filtered through 0.5% PEI-coated filter plates using a BiomekFX. The filter plate was then dried for 1 h at 50 °C. Scintillation fluid was added to each well, before reading the plate in a Microbeta reader.
Binding data were analysed using the One site – Fit Ki model in GraphPad Prism 8 (GraphPad Software) to determine binding affinity. Pharmacology in vitro potency data was analysed with a 4-parameter logistic fit using the equation y = Bottom + (Top − Bottom)/[…] where y is the response, x is the 10-logarithm of the drug concentration, Bottom is no response and Top is full response in GraphPad Prism 8 or Genedata Screener (Genedata). pEC50 and pIC50 data are presented as mean ± standard error of the mean (s.e.m.) derived from the number of independent experiments stated. Schild slope analysis was calculated using Graphpad Prism 8 Gaddum/Schild EC50 global fitting (shared model parameters between all data sets) competitive model. The most rigorous method for quantifying agonist-antagonist interactions is to globally fit the Gaddum/Shild model to all agonist dose–response curves. Schild slope quantifies the shifts in agonist response in the presence of antagonist, a Schild slope of 1 indicates the antagonist is competitive and extra-sum-of-squares F-test (p < 0.05) was used to compare the calculated Schild slope against a hypothetical Schild slope of 1. […] The relative activity was calculated using (EmaxEC50’)/(Emax’EC50) with the Hill slope help constant at 1. EC50’ and Emax’ denote the EC50 and Emax in the absence of allosteric modulator, while EC50 and Emax denote those measured in the presence of allosteric modulator. When the Hill slope = 1, the relative activity plot approaches an asymptote corresponding to the estimate of the γ value.

In the case of `CNC(=O)[C@H]1CC[C@@H](NC(=O)[C@H](CC2CCCCC2)NC(=O)c2cn(Cc3ccccc3)nn2)c2ccccc21` [AZ2429], the “higher potency than SLIGKV-NH2, Ca^2+ signalling” value (hPAR2 [1]; 1321N1-hPAR2) is reported as 7 fold, the “lower potency than GB110, Ca^2+ signalling” value (hPAR2 [1]; 1321N1-hPAR2) is reported as 6 fold and the EC50 (hPAR2 [1]; 1321N1-hPAR2 cells, mean ± s.e.m., read-out: Ca^2+ flux pEC50 (converted)) is reported as 166 nM. The “Ca2+ response (Fig 2c), individual replicate values” (“Ca2+ response (Fig 2c)” for short) (hPAR2 [1]; [compound],M -4.30103) was 115.742 and 78.7868 and 73.0001 and 99.0117, the “Ca2+ response (Fig 2c)” value (hPAR2 [1]; [compound],M -4.77815) was 114.252 and 90.1883 and 78.2712 and 103.481 and the “Ca2+ response (Fig 2c)” value (hPAR2 [1]; [compound],M -5.25527) was 97.9804 and 100.329 and 107.319 and 71.9688. The “Ca2+ response (Fig 2c)” value (hPAR2 [1]; [compound],M -5.73239) was 87.2091 and 90.6467 and 67.5571 and 89.0425, the “Ca2+ response (Fig 2c)” value (hPAR2 [1]; [compound],M -6.20952) was 54.0357 and 69.6197 and 81.4796 and 66.5831 and the “Ca2+ response (Fig 2c)” value (hPAR2 [1]; [compound],M -6.68664) was 45.3269 and 46.8166 and 52.6033 and 41.6601. For the same molecule, the “Ca2+ response (Fig 2c)” value (hPAR2 [1]; [compound],M -7.16376) was 19.1435 and 34.6702 and 20.5758 and 32.3784, the “Ca2+ response (Fig 2c)” value (hPAR2 [1]; [compound],M -7.64088) was 5.851 and 8.888 and 9.461 and 7.513 and the “Ca2+ response (Fig 2c)” value (hPAR2 [1]; [compound],M -8.118) was -2.628 and 1.21 and 2.414 and 2.5854. For the same molecule, the “Ca2+ response (Fig 2c)” value (hPAR2 [1]; [compound],M -8.59512) was -2.8 and -3.316 and -1.4252 and -1.712, the remaining binding at 100 µM (hPAR2 [2]; 2 h, log [compound],M -4, individual data points, read-out: specific binding of [^3H]-GB110, Fig 2b source data) was 19.6% and the remaining binding at 33.3 µM (hPAR2 [2]; 2 h, log [compound],M -4.47756, individual data points, read-out: specific binding of [^3H]-GB110, Fig 2b source data) was 10.5%. For the same molecule, the remaining binding at 3.7 µM (hPAR2 [2]; 2 h, log [compound],M -5.4318, individual data points, read-out: specific binding of [^3H]-GB110, Fig 2b source data) was 11.5%, the remaining binding at […] (hPAR2 [2]; 2 h, log [compound],M -5.91009, individual data points, read-out: specific binding of [^3H]-GB110, Fig 2b source data) was 15.9% and the remaining binding at 0.0152 µM (hPAR2 [2]; 2 h, log [compound],M -7.81816, individual data points, read-out: specific binding of [^3H]-GB110, Fig 2b source data) was 88%. The remaining binding at 0.00508 µM (hPAR2 [2]; 2 h, log [compound],M -8.29414, individual data points, read-out: specific binding of [^3H]-GB110, Fig 2b source data) was 97.4%, the remaining binding at 0.00169 µM (hPAR2 [2]; 2 h, log [compound],M -8.77211, individual data points, read-out: specific binding of [^3H]-GB110, Fig 2b source data) was 99.3% and the remaining binding at 0.000565 µM (hPAR2 [2]; 2 h, log [compound],M -9.24795, individual data points, read-out: specific binding of [^3H]-GB110, Fig 2b source data) was 105%. The Ki (hPAR2 [2]; [3H]-GB110, earlier manuscript version quoted by reviewer, read-out: Ki) was 63 nM.

`C[C@@H](C1CCCCC1)n1c(-c2cc3c(cc2Br)OCO3)nc2cc(C(=O)Nc3ccc(C#N)cc3)ccc21` [AZ3451] was tested, and the “Ca^2+ mobilisation tested as agonist, Fig 1c source data” value (“Ca^2+ mobilisation tested as agonist” for short) (hPAR2 [1]; M -4.38018) was 2.619 and -1.693 and 12.8149 and 8.844 and 5.039, the “Ca^2+ mobilisation tested as agonist” value (hPAR2 [1]; M -4.88008) was 6.334 and 5.142 and -5.002 and 2.343 and 2.365 and the “Ca^2+ mobilisation tested as agonist” value (hPAR2 [1]; M -5.38018) was 7.004 and 3.992 and 6.097 and 3.93 and 1.406. For the same molecule, the “Ca^2+ mobilisation tested as agonist” value (hPAR2 [1]; M -5.88008) was 0.5481 and 1.501 and 3.614 and 4.082 and 2.434, the “Ca^2+ mobilisation tested as agonist” value (hPAR2 [1]; M -6.38007) was 1.705 and 0.03194 and -3.0303 and 2.1164 and 2.6397 and the “Ca^2+ mobilisation tested as agonist” value (hPAR2 [1]; M -6.88008) was 1.523 and 0.2236 and 5.2939 and 1.134 and 0.3771. The “Ca^2+ mobilisation tested as agonist” value (hPAR2 [1]; M -7.37997) was 1.949 and 4.9505 and 1.716 and -0.3779 and 3.12, the “Ca^2+ mobilisation tested as agonist” value (hPAR2 [1]; M -7.88008) was 3.289 and 0.09582 and 3.3954 and 1.814 and 4.697 and the “Ca^2+ mobilisation tested as agonist” value (hPAR2 [1]; M -8.37986) was 0.7917 and -0.8623 and -2.957 and 0.7559 and 2.503. For the same molecule, the “Ca^2+ mobilisation tested as agonist” value (hPAR2 [1]; M -8.87976) was 1.34 and -1.757 and 1.643 and 4.989 and 1.8855, the “agonist activity (tested as agonists)” value (hPAR2 [1]) was “no effect; also recorded: no agonist activity” and the Ki (hPAR2 [2]; against [^3H]-GB110, HEKexpi293F membranes expressing hPAR2, mean ± s.e.m., read-out: Competition binding pKi (converted)) was 12.6 nM.

`CCCc1cc(F)ccc1C(O)c1ncc[nH]1` (stereo not shown) [AZ8838] was tested, and the “Ca^2+ mobilisation tested as agonist” value (hPAR2 [1]; M -4.38018) was 2.862 and -0.09582 and -3.103 and -1.512 and -1.8855, the “Ca^2+ mobilisation tested as agonist” value (hPAR2 [1]; M -4.88008) was -0.3654 and 0.4152 and -1.57 and -6.425 and -2.983 and the “Ca^2+ mobilisation tested as agonist” value (hPAR2 [1]; M -5.38018) was 1.583 and 0.2874 and -4.491 and -0.4535 and -1.063. The “Ca^2+ mobilisation tested as agonist” value (hPAR2 [1]; M -5.88008) was 3.532 and 5.014 and 4.491 and 1.663 and -0.1714, the “Ca^2+ mobilisation tested as agonist” value (hPAR2 [1]; M -6.38007) was 1.035 and 1.437 and 3.98 and 0.4535 and 1.817 and the “Ca^2+ mobilisation tested as agonist” value (hPAR2 [1]; M -6.88008) was 1.705 and 1.246 and -5.002 and 2.343 and 3.3939. The “Ca^2+ mobilisation tested as agonist” value (hPAR2 [1]; M -7.37997) was 2.862 and -1.309 and -0.8397 and 2.948 and 1.406, the “Ca^2+ mobilisation tested as agonist” value (hPAR2 [1]; M -7.88008) was 2.375 and -2.268 and 1.1318 and 4.308 and 1.268 and the “Ca^2+ mobilisation tested as agonist” value (hPAR2 [1]; M -8.37986) was -1.218 and 0.543 and 2.665 and 1.436 and 3.188. For the same molecule, the “Ca^2+ mobilisation tested as agonist” value (hPAR2 [1]; M -8.87976) was 4.6285 and 0.6707 and 4.491 and -8.012 and -2.845, the “agonist activity (tested as agonists)” value (hPAR2 [1]) was “no effect; also recorded: no agonist activity” and the Ki (hPAR2 [2]) was 398 nM.
